According to publication PMC11189555, “Aryl amino acetamides prevent Plasmodium falciparum ring development via targeting the lipid-transfer protein PfSTART1” (Nature Communications, 2024):
Several values for one entry are separate records, joined by “and”; a condition that tells them apart may be missing. Equal entries are not always repeated.

Key:
[1] = system: Hyp1-Nluc parasites; assay: Egress, invasion & recovery assay (Nluc bioluminescence, smears); format: cell-based, Plasmodium falciparum; settings: W-991 60 nM; for parasite morphology at 72 h after 4 h treatment: M-833 2 µM, Giemsa smears; for parasite growth (Nluc bioluminescence) followed 72 h after 4 h treatment: schizonts treated 4 h: M-833 2 µM, ML10 30 nM, E64 10 µM, heparin 100 µg/mL, then washed off
Excerpt: To measure egress, invasion, and follow-up recovery in the presence of different compounds, we adapted the method developed in[11], using Hyp1-Nluc parasites. A full description is in the Supplementary Information. […]
and compound 4. Note that M-833 was first purchased from MolPort (MolPort -002-267-916) then made in-house at WEHI: the differences observed in EC50s across experiments are attributed to the different batches of M -833. […]
Egress, invasion & recovery assay. To measure egress, invasion and follow up recovery in the presence of different compounds, we adapted the method developed in6, using Hyp1-Nluc parasites7. These parasites episomally express the exported PEXEL protein Hyp1 (PF3D7_0113300) tagged with a NanoLuc luciferase (NLuc) and were selected with 2.5 nM WR99210 (Jacobus). Highly synchronised schizonts were obtained using ML10 (LifeArc) and sorbitol synchronisation, and Percoll-purified (the culture was gently layered over 67% Percoll (Cytiva) in RPMI, and centrifuged for 15 min at 1500 g and the schizont layer was collected and washed). In a 96-well plate, […]
cultures were set up in 4 replicates (3 replicates for the Nluc readout, and one replicate for Giemsa smears) with 1-2% parasitemia, 2% haematocrit, with the following […]
100 μg/ml heparin (Sigma) and 10 μM E64 (Sigma). The schizonts were allowed to egress and invade for 4 h at 37°C. A “background” plate without treatment was left in the fridge during this time. After 4 h, cultures were sorbitol -treated to eliminate schizonts that have not egressed. Smears were made every day for the following 3 days, and 5 μL of the resuspended cultures were taken to measure Nluc activity (to assess parasite’s presence). To measure Nluc activity, 5 μL culture were added to 45 μL NanoGlo reagent (1x Promega lysis buffer and NanoGlo reagent; Promega). The average luminescence of the background cultures was subtracted to the average luminescence of each sample. […]
The viable parasite value was then expressed in log units and parasite reduction ratio was calculated as a decrease in […]

[2] = system: ring-stage 3D7 parasites; assay: Stage arrest and recovery assay (SYBR Green flow cytometry, Giemsa smears); format: cell-based, Plasmodium falciparum; settings: for growth after washout of compound: 48 h treatment, then washout, 6 days post washout (T = 192 h); for ring morphology after 48 h / schizont development at 36 h / impact on already-developed rings or trophozoites: M-833 2 µM, W-991 60 nM from ring stage; for impact on already-developed rings or trophozoites: one cycle; for Parasitemia derived from flow cytometry: replicates 1 and 2
Experimental: Parasites were synchronised using a Percoll density gradient (Cytiva) combined with 5% sorbitol lysis. Ring-stage parasites at 0-4 hours post-invasion at 2% parasitemia and haematocrit were then added to 2 µM M-833, 60 nM W-991 or 0.02% DMSO and incubated at 37 °C with compound replenished every 24 h. After 48 h, samples of M-833 and W-991-treated parasites were washed x 3 in complete RPMI to remove the compound and put back into culture for the remainder of the experiment. For the following two cycles of growth, samples were taken every 24 h to monitor recovery. Upon completion of time points, fixed cells were stained with 2.5 x SYBR Green (Invitrogen) in PBS, washed once in PBS, and analysed on the Attune Flow Cytometer (ThermoFisher Scientific). Giemsa-stained blood smears were visualised and imaged using a Nikon Eclipse E600 microscope.

## Cc1cc(Cl)c(S(=O)(=O)N2CCCC2)cc1OCC(=O)NC1CCCCC1 [M-833]
[1]
  parasite morphology at 72 h after 4 h treatment: resembled the dysmorphic ring-stage parasites
  parasite growth (Nluc bioluminescence) followed 72 h after 4 h treatment: virtually no recovery after three days
[2]
  growth after washout of compound: able to resume normal growth
  ring morphology after 48 h: presence of dysmorphic rings
  schizont development at 36 h: slight developmental delay of schizonts
  impact on already-developed rings or trophozoites: did not indicate any impact
[2]; timepoint 0, no washout
  Parasitemia derived from flow cytometry: 2.571 and 1.962
[2]; timepoint 0, washout
  Parasitemia derived from flow cytometry: 1.962 and 2.571
[2]; timepoint 48, no washout
  Parasitemia derived from flow cytometry: 11.6017 and 7.415
[2]; timepoint 48, washout
  Parasitemia derived from flow cytometry: 7.415 and 11.6017
[2]; timepoint 96, no washout
  Parasitemia derived from flow cytometry: 6.175 and 3.315
[2]; timepoint 96, washout
  Parasitemia derived from flow cytometry: 2.881 and 5.202
[2]; timepoint 144, no washout
  Parasitemia derived from flow cytometry: 3.175 and 1.778
[2]; timepoint 144, washout
  Parasitemia derived from flow cytometry: 2.202 and 4.604
[2]; timepoint 192, no washout
  Parasitemia derived from flow cytometry: 2.332 and 1.369
[2]; timepoint 192, washout
  Parasitemia derived from flow cytometry: 3.268 and 8.096
[2]; timepoint 240, no washout
  Parasitemia derived from flow cytometry: 2.528 and 1.343
[2]; timepoint 240, washout
  Parasitemia derived from flow cytometry: 6.874 and 13.4537

## CC(C)(Nc1ccc(Cl)c(S(=O)(=O)N2CCOCC2)c1)C(=O)Nc1ccc(F)c(Cl)c1 [W-991]
[1]
  parasite morphology at 72 h after 4 h treatment: resembled the dysmorphic ring-stage parasites
  parasite growth (Nluc bioluminescence) followed 72 h after 4 h treatment: virtually no recovery after three days
[2]
  growth after washout of compound: able to resume normal growth
  ring morphology after 48 h: presence of dysmorphic rings
  schizont development at 36 h: slight developmental delay of schizonts
  impact on already-developed rings or trophozoites: did not indicate any impact
[2]; 60 h time point
  reduction in parasitemia vs DMSO (Giemsa-stained smears): 1.3 fold
[2]; timepoint 0, no washout
  Parasitemia derived from flow cytometry: 2.571 and 1.962
[2]; timepoint 0, washout
  Parasitemia derived from flow cytometry: 2.571 and 1.962
[2]; timepoint 48, no washout
  Parasitemia derived from flow cytometry: 11.0007 and 8.084
[2]; timepoint 48, washout
  Parasitemia derived from flow cytometry: 11.0007 and 8.084
[2]; timepoint 96, no washout
  Parasitemia derived from flow cytometry: 5.782 and 3.338
[2]; timepoint 96, washout
  Parasitemia derived from flow cytometry: 5.455 and 2.599
[2]; timepoint 144, no washout
  Parasitemia derived from flow cytometry: 3.388 and 1.894
[2]; timepoint 144, washout
  Parasitemia derived from flow cytometry: 3.848 and 1.766
[2]; timepoint 192, no washout
  Parasitemia derived from flow cytometry: 2.379 and 1.388
[2]; timepoint 192, washout
  Parasitemia derived from flow cytometry: 4.263 and 2.036
[2]; timepoint 240, no washout
  Parasitemia derived from flow cytometry: 2.587 and 1.356
[2]; timepoint 240, washout
  Parasitemia derived from flow cytometry: 6.983 and 2.934
